Measurements reported in the supplement of paper PMC4862054.

How the values were obtained:
Details in all cases: incubation time: 72 h
MCF-10A [1] = assay: normalised response (% of control), CellTiter-Glo; higher = more viable cells (100 = DMSO, 0 = benzethonium chloride kill control)
Method in brief: (§1)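 A 20 µl suspension of breast cancer cells was seeded into each well of 384-well plates containing compound at 5 concentrations in 10-fold steps over a compound-specific 10,000-fold range. After 72 h incubation, CellTox Green fluorescence (485/520 nm) was read first, and CellTiter-Glo luminescence was read after 10 min at room temperature. Each plate was normalised against 0.1 % DMSO (100) and a positive kill control (0), and each value is the normalised signal at one concentration.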

CAL-85-1 [2] = assay: as above
Method in brief: as §1

MDA-MB-436 [3] = assay: as above
Method in brief: as §1

CAL-120 [4] = assay: as above
Method in brief: as §1

HDQ-P1 [5] = assay: as above
Method in brief: as §1

BT-549 [6] = assay: as above
Method in brief: as §1

CAL-148 [7] = assay: as above
Method in brief: as §1

Hs578T [8] = assay: as above
Method in brief: as §1

MDA-MB-468 [9] = assay: as above
Method in brief: as §1

MDA-MB-453 [10] = assay: as above
Method in brief: as §1

HCC1937 [11] = assay: as above
Method in brief: as §1

MFM-223 [12] = assay: as above
Method in brief: as §1

DU-4475 [13] = assay: as above
Method in brief: as §1

CAL-51 [14] = assay: as above
Method in brief: as §1

MDA-MB-231 [15] = assay: as above
Method in brief: as §1

SK-BR-3 = assay: as above
Method in brief: as §1

BT-474 [16] = assay: as above
Method in brief: as §1

HCC1143 [17] = assay: as above
Method in brief: as §1

HCC1599 [18] = assay: as above
Method in brief: as §1

MCF-10A [19] = assay: normalised response (% of control), CellTox Green; higher = less cell death (100 = DMSO, 0 = benzethonium chloride kill control)
Method in brief: as §1

CAL-85-1 [20] = assay: as above
Method in brief: as §1

MDA-MB-436 [21] = assay: as above
Method in brief: as §1

CAL-120 [22] = assay: as above
Method in brief: as §1

HDQ-P1 [23] = assay: as above
Method in brief: as §1

BT-549 [24] = assay: as above
Method in brief: as §1

CAL-148 [25] = assay: as above
Method in brief: as §1

Hs578T [26] = assay: as above
Method in brief: as §1

MDA-MB-468 [27] = assay: as above
Method in brief: as §1

MDA-MB-453 [28] = assay: as above
Method in brief: as §1

HCC1937 [29] = assay: as above
Method in brief: as §1

MFM-223 [30] = assay: as above
Method in brief: as §1

DU-4475 [31] = assay: as above
Method in brief: as §1

CAL-51 [32] = assay: as above
Method in brief: as §1

MDA-MB-231 [33] = assay: as above
Method in brief: as §1

BT-474 [34] = assay: as above
Method in brief: as §1

HCC1143 [35] = assay: as above
Method in brief: as §1

HCC1599 [36] = assay: as above
Method in brief: as §1

| Compound | normalised response (MCF-10A [1]) | normalised response (CAL-85-1 [2]) | normalised response (MDA-MB-436 [3]) | normalised response (CAL-120 [4]) | normalised response (HDQ-P1 [5]) | normalised response (BT-549 [6]) | normalised response (CAL-148 [7]) | normalised response (Hs578T [8]) | normalised response (MDA-MB-468 [9]) | normalised response (MDA-MB-453 [10]) | normalised response (HCC1937 [11]) | normalised response (MFM-223 [12]) | normalised response (DU-4475 [13]) | normalised response (CAL-51 [14]) | normalised response (MDA-MB-231 [15]) | normalised response (SK-BR-3) | normalised response (BT-474 [16]) | normalised response (HCC1143 [17]) | normalised response (HCC1599 [18]) | normalised response (MCF-10A [19]) | normalised response (CAL-85-1 [20]) | normalised response (MDA-MB-436 [21]) | normalised response (CAL-120 [22]) | normalised response (HDQ-P1 [23]) | normalised response (BT-549 [24]) | normalised response (CAL-148 [25]) | normalised response (Hs578T [26]) | normalised response (MDA-MB-468 [27]) | normalised response (MDA-MB-453 [28]) | normalised response (HCC1937 [29]) | normalised response (MFM-223 [30]) | normalised response (DU-4475 [31]) | normalised response (CAL-51 [32]) | normalised response (MDA-MB-231 [33]) | normalised response (BT-474 [34]) | normalised response (HCC1143 [35]) | normalised response (HCC1599 [36]) |
| --- | --- | --- | --- | --- | --- | --- | --- | --- | --- | --- | --- | --- | --- | --- | --- | --- | --- | --- | --- | --- | --- | --- | --- | --- | --- | --- | --- | --- | --- | --- | --- | --- | --- | --- | --- | --- | --- |
| C[C@]12CC[C@H](O)CC1=CC[C@@H]1[C@@H]2CC[C@]2(C)C(c3cccnc3)=CC[C@@H]12 [Abiraterone] (500 nM) | 112% | 104% | 96% | 97.1% | 99.2% | 99.1% | 105% | 106% | 98% | 99.3% | 98.7% | 101% | 105% | 65.6% | 105% | 103% | 90.7% | 98.8% | 107% | 102% | 96% | 88.8% | 99.1% | 108% | 135% | 94.8% | 114% | 92% | 104% | 123% | 104% | 101% | 101% | 127% | 103% | 104% | 110% |
| CO[C@H]1C[C@@H]2CC[C@@H](C)[C@@](O)(O2)C(=O)C(=O)N2CCCC[C@H]2C(=O)O[C@H]([C@H](C)C[C@@H]2CC[C@@H](OCCO)[C@H](OC)C2)CC(=O)[C@H](C)/C=C(\C)[C@@H](O)[C@@H](OC)C(=O)[C@H](C)C[C@H](C)/C=C/C=C/C=C/1C [Everolimus] (10 nM) | 79.2% | 67.1% | 77.8% | 64.9% | 78.7% | 64.9% | 51.9% | 71.9% | 52.1% | 55.2% | 69.7% | 62.6% | 68.2% | 61.6% | 85.7% | 53.7% | 80.7% | 62.6% | 88.8% | 106% | 109% | 81.7% | 101% | 105% | 51% | 88% | 85.6% | 178% | 104% | 114% | 71.1% | 96% | 97.5% | 103% | 99.8% | 109% | 91.6% |
| CC(C)c1c(C(=O)Nc2ccccc2)c(-c2ccccc2)c(-c2ccc(F)cc2)n1CC[C@@H](O)C[C@@H](O)CC(=O)O [Atorvastatin] (1000 nM) | 84% | 91.9% | 92.6% | 90.5% | 74.8% | 95.6% | 105% | 101% | 93.2% | 99.4% | 96.6% | 99.1% | 99.9% | 90.2% | 59.1% | 102% | 66.1% | 93.4% | 95.6% | 83.6% | 110% | 96.6% | 98.2% | 103% | 97.4% | 103% | 97.4% | 87.3% | 94.1% | 88.3% | 89.4% | 101% | – | 34% | 99.9% | 114% | 100% |
| CC[C@]1(O)C[C@H]2CN(CCc3c([nH]c4ccccc34)[C@@](C(=O)OC)(c3cc4c(cc3OC)N(C=O)[C@H]3[C@@](O)(C(=O)OC)[C@H](OC(C)=O)[C@]5(CC)C=CCN6CC[C@]43[C@@H]65)C2)C1 [Vincristine] (100 nM) | 72.7% | 40.8% | 28.6% | 63.2% | 79.3% | 42.1% | 47.8% | 24.1% | 32.9% | 57.9% | 72.8% | 45.8% | 71.1% | 46.3% | 53.2% | 13.6% | 58.5% | 60.9% | 21.6% | -44.4% | 69.3% | 73.6% | 86.3% | 93% | 44.2% | 82.8% | 62.5% | 38.5% | 97.3% | 62.1% | 15.3% | 100% | 40.1% | 3.37% | 75.3% | 94.3% | 82.2% |
| O=C(O)CCCc1ccc(N(CCCl)CCCl)cc1 [Chlorambucil] (1000 nM) | 102% | 103% | 103% | 94.7% | 97.4% | 111% | 95.5% | 105% | 101% | 102% | 95% | 103% | 105% | 108% | 99.8% | 101% | 96.7% | 100% | 91.9% | – | 110% | 93.3% | 98.5% | 103% | 115% | 104% | 108% | 103% | 100% | 85.3% | 95.5% | 102% | 113% | 103% | 98.2% | 98.2% | 96.9% |
| NS(=O)(=O)OC[C@@H]1C[C@@H](n2ccc3c(N[C@H]4CCc5ccccc54)ncnc32)C[C@@H]1O [Pevonedistat] (1000 nM) | 107% | 49.9% | 34.6% | 61.9% | 89.3% | 34.6% | 118% | 73.2% | 33% | 80.6% | 83.3% | 59.5% | 0.82% | 21.2% | 71% | 35.5% | 63.6% | 61.2% | 40% | 115% | 86.6% | 80.8% | 96.4% | 104% | 85% | 104% | 85% | 49.4% | 99.4% | 72.7% | 102% | 76.2% | -16% | 106% | 101% | 96.1% | 95% |
| Nc1ncnc2c1c(COc1cccc(Cl)c1)nn2C1CCOCC1 (1000 nM) | 104% | 93.4% | 106% | 111% | 107% | 88.6% | 102% | 97.1% | 96.6% | 103% | 103% | 104% | 102% | 105% | 104% | 107% | 104% | 104% | 113% | – | 108% | 107% | 103% | 114% | 96.5% | 105% | 104% | 99.3% | 110% | 124% | 103% | 108% | 118% | 115% | 98.3% | 119% | 74.4% |
| CNNCc1ccc(C(=O)NC(C)C)cc1 [Procarbazine] (1000 nM) | 105% | 102% | 104% | 102% | 103% | 98.7% | 104% | 109% | 105% | 100% | 105% | 101% | 94.8% | 78.5% | 107% | 110% | 98.1% | 104% | 101% | 107% | 95.4% | 98% | 106% | 104% | 107% | 104% | 101% | 84% | 70.8% | 105% | – | 104% | 103% | 104% | 101% | 123% | 95% |
